In brackets after ≈: the same amount, converted by molar mass. Entries after “also recorded” stand apart in the source; their conditions may differ.
Columns and labels:
E. coli = assay: Antibacterial MIC, microbroth dilution, E. coli; type: cell-based
Procedure: (§1) To investigate this possibility, the antibacterial effects of the DNM derivatives was assessed against strains of E. coli, S. aureus, and MRSA using the microbroth dilution method (Table 2).

S. aureus = assay: Antibacterial MIC, microbroth dilution, S. aureus; type: cell-based
Procedure: as §1

H460 = assay: Antiproliferative SRB assay, H460; type: cell-based; conditions: Homo sapiens, NCI-H460, 72 h, Lung cancer, mean ± SEM
Description: (§2) Topoisomerase inhibitors such as DOX are used as single agent and in combination therapy to treat a wide-range of cancer types.

HOS = assay: Antiproliferative SRB assay, HOS; type: cell-based; conditions: Homo sapiens, 72 h, Osteosarcoma, mean ± SEM
Description: as §2

Top2α = Top2α (Homo sapiens, UniProt P11388); assay: Top2α kDNA decatenation assay; type: biochemical; conditions: gel electrophoresis, FIG. 3a
Top2α, sequence (P11388 whole entry): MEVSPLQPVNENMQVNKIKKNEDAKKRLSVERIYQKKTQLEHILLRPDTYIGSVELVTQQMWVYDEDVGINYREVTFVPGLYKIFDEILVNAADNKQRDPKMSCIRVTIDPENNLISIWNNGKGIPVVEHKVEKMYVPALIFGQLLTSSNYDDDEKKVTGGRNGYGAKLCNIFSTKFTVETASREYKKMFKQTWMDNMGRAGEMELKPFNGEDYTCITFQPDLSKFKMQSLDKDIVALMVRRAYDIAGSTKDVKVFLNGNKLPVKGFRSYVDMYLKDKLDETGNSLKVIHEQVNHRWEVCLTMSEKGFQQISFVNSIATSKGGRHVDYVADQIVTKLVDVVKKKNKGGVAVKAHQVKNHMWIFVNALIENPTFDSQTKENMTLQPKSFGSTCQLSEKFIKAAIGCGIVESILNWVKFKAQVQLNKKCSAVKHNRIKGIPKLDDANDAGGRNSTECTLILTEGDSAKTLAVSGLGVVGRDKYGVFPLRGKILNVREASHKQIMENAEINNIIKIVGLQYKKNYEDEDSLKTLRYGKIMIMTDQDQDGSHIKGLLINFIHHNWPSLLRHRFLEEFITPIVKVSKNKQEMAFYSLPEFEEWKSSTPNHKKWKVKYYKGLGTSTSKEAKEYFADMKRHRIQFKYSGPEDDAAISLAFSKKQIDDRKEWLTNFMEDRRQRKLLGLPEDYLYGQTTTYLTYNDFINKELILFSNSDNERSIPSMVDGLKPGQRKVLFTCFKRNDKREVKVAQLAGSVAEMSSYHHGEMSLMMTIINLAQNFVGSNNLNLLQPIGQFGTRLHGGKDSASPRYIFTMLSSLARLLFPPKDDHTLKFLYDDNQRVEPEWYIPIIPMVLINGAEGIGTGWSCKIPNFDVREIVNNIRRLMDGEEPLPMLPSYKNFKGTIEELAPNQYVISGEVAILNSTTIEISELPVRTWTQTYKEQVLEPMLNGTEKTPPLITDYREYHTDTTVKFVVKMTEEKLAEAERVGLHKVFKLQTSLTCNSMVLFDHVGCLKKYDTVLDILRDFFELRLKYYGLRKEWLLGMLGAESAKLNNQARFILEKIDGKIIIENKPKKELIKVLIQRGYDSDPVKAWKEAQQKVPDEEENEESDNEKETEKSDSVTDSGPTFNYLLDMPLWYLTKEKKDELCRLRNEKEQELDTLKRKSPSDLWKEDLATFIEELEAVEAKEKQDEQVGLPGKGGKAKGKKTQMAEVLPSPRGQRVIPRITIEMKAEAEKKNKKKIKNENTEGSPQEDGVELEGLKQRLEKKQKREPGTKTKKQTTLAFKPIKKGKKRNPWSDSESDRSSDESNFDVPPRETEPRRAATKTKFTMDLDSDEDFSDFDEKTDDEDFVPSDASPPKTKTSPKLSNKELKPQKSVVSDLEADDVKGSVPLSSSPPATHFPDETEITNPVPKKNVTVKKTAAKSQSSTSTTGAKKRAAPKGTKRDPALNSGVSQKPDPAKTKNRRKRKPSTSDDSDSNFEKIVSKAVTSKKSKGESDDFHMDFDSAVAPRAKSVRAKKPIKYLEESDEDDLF
Description: FIG. 3. DNM derivatives are dual Top1/Top2 inhibitors with different modes of inhibition. (a) Inhibition of decatenating ability of Top2α with increasing concentrations of ETP, 6DNM-NH3, 6DNM-Pyr, and Ph-6DNM-NH3. K, kinetoplast DNA; OC, open circular; R, relaxed. (b) Inhibition of relaxing ability of Top1 with increasing concentrations of CPT, 6DNM-NH3, 6DNM-Pyr, and Ph-6DNM-NH3. R, relaxed; S, supercoiled. (c) Detection of Top2a-DNA using the ICE Assay. Genomic DNA ([…]) of H460 cells treated with drugs (50 μM, 30 min) was applied to nitrocellulose membrane and immunoblotted for Top2a. (d) Detection of Top1-DNA adducts using ICE Assay. Same procedure as (c) using 1 μg of DNA. (e) Inhibition of ETP-induced poisoning of Top2a. H460 cells treated with indicated concentrations of inhibitor for 30 min prior to treatment with ETP (50 μM). Detection of Top2α as in (c).
FIG. 9. Mechanism of action studies: Topoisomerases form transient covalent complexes with DNA to modify DNA topology. Ph6DNM-NH3 and 6DNM-NH3 inhibit bacterial DNA gyrase and human topoisomerase II in vitro.
The ability of Ph-6DNM-NH3, 6DNM-NH3, and 6DNM-Pyr to inhibit Top2α was assessed using a decatenation assay. In this assay, Top2α is incubated with kinetoplast DNA (kDNA), a large network of catenated minicircles and maxicircles of DNA. As Top2α decatenates the kDNA, it releases supercoiled and relaxed DNA minicircles that are easily separated from the kDNA by gel electrophoresis.

Top1 = target: T1, Top1 (Homo sapiens, UniProt P11387); assay: Top1 degradation by Western blot, MDA-MB-231; type: cell-based; set-up: dose or concentration left out as unconfirmed; conditions: 4, and 6 hours, then 30-minute drug-free media
T1 sequence (P11387 1-765): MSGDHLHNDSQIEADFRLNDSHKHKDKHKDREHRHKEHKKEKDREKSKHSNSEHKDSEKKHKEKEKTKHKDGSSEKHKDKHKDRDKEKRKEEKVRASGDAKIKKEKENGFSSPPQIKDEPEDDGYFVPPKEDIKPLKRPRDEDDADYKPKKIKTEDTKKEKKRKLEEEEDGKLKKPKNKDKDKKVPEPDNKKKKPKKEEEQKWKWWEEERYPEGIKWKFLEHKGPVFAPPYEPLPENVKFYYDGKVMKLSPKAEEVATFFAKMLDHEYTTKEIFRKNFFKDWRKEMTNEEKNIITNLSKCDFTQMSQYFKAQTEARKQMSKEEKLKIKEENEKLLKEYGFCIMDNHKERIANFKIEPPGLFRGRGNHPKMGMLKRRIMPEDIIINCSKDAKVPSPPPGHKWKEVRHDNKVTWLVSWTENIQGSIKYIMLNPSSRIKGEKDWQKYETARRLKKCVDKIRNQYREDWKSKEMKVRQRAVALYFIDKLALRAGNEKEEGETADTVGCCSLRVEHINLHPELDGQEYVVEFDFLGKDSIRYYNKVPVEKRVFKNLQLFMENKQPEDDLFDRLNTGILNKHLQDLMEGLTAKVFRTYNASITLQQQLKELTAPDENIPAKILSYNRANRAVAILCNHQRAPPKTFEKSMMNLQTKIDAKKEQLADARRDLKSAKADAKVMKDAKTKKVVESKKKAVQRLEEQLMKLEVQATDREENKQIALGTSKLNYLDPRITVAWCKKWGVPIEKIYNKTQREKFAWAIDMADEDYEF
Procedure: FIG. 4. Level of Top1-degradation predicts cell line sensitivity. (a) Cells treated with 25 μM of compound for indicated times followed by a 30 minute incubation with drug-free media. Cells were lysed with RIPA and Top1 levels assessed by Western Blot. (b) Degradation of Top1 results in a right-ward shift in the dose-response curve. Effect is most pronounced in Top1-poisons (Ph-6DNM-NH3, CPT) than Top1 catalytic inhibitor (6DNM-Pyr). Cell death measured by SRB assay after 72 hour of compound exposure (n≥3 biological replicates, error bars show SEM).
This difference in mechanism of action between Ph-6DNM-NH3 and 6DNM-Pyr may provide an explanation of the differences in cell line sensitivities between the different DNM derivatives. […] This downregulation serves as a resistance mechanism and the level of Top1 degradation is correlated with reduced sensitivity to CPT. To determine if a similar mechanism is responsible for the reduced sensitivity to Ph-6DNM-NH3 and its derivatives in certain cell lines, the effects of Ph-6DNM-NH3 and 6DNM-Pyr were compared to that of CPT in […] and BT-474, two cancer cell lines known to be deficient and proficient in Top1 degradation, respectively. Cells were treated with 50 μM Ph-6DNM-NH3, 6DNM-Pyr, or CPT for 2, 4, and 6 hours. Following a 30-minute incubation with drug-free media to allow for the reversal of any Top1cc formed, cells were lysed and Top1 concentrations assessed by Western blot (FIG. 4a).

Cc1cc(=O)n(C)c2c3c4c(cc12)c(C)cc(=O)n4C(CN1CCCC1)CO3 (stereo not drawn) [Compound 20]
MIC (E. coli; Escherichia coli): 1 µg/mL (≈ 2.64 µM)
MIC (S. aureus; Staphylococcus aureus): 0.5 µg/mL (≈ 1.32 µM)
IC50 (H460): 6.6 ± 0.5 nM
IC50 (HOS): 16 ± 2 nM
Inhibition of decatenating function of Top2α (Top2α; listed as 6DNM-Pyr): inhibit the decatenating function of Top2α in a dose-dependent manner; also recorded: inhibiting Top2α function at lower concentrations than 6DNM-NH3
Top1 levels by Western blot in MDA-MB-231 (Top1): minimal differences in Top1 relative to untreated cells

Cc1cc(=O)n2c3c(c4c(cc13)c1ccccc1c(=O)n4C)OCC2CN (stereo not drawn) [Compound 15]
E. coli MIC (E. coli): 0.25 µg/mL
S. aureus MIC (S. aureus): 1 µg/mL
IC50 (H460): 12 ± 2 nM
IC50 (HOS): 17 ± 1 nM
Inhibition of decatenating function of Top2α (Top2α; listed as Ph-6DNM-NH3): inhibit the decatenating function of Top2α in a dose-dependent manner; also recorded: the least active derivative in this in vitro assay
Top1 levels by Western blot in MDA-MB-231 (Top1): minimal differences in Top1 relative to untreated cells

Source: patent publication US11274106B2, “Topoisomerase inhibitors with antibacterial and anticancer activity” (THE BOARD OF TRUSTEES OF THE UNIVERSITY OF ILLINOIS, priority 2017, dated 2022)
